Assay results taken from patent publication US5830504A, “Cooperative combinations of ligands contained within a matrix” (La Jolla Cancer Research Foundation, priority 1995, dated 1998).

Columns and labels:
Type in all cases: cell-based
Rat-1 cells = assay: DNA synthesis ([3H]-thymidine incorporation) in EGF-stimulated Rat-1 cells on vitronectin or collagen; details: 40 ng/ml EGF, 20 μg/ml coating, FIG. 6
Method: (§1) Rat-1 cells were plated at 1×10^5 cells/well on 24-well plates that had been coated for 12 hours either with 20 μg/ml of vitronectin or 20 μg/ml of type I collagen. Cells were incubated for 36 hours in Dulbecco's modified Eagle's medium containing 0.1% bovine serum albumin followed by addition of buffer or 40 ng/ml EGF (Boehringer Mannheim). After 15 hours, the cells were pulse-labeled with 1 μCi/ml [^3 H]-thymidine (specific activity 6.7 Ci/mmol, DuPont NEN) for 3 hours and thymidine incorporation into DNA was determined by liquid scintillation counting.
After being serum-starved, the cells were treated with buffer only (samples 1 and 2) or with EGF (samples 3 and 4). Data points are the average of triplicate samples.

[1] = test system: αv β3 integrin-IRS-1 association in HIRcB cells; assay: Association of IRS-1 with the vitronectin receptor after insulin stimulation (immunoprecipitation, immunoblot, densitometry); details: insulin-stimulated HIRcB cells; 100 nM insulin; compared with IRS-1 from total cell lysate
Method: HIRcB cells were grown to 80% confluency in Dulbeccos's modified Eagle's medium (DMEM) containing 10% fetal calf serum (FCS) and 500 nM methotrexate, incubated in DMEM+0.1% BSA for 36 hours, and either left quiescent, or stimulated with 100 nM insulin (Sigma) for 3 minutes. Cell monolayers were rinsed with PBS, frozen with liquid nitrogen and lysed in NP-40 lysis buffer (20 mM Tris-HCl (pH 8.0), 1% NP-40, 10% glycerol, 137 mM NaCl, 1 mM CaCl2, 1 mM MgCl2, 1 mM sodium orthovanadate, 50 mM sodium fluoride, 1 mM phenylmethylsulfonylfluoride, 0.1 U/ml aprotinin, 10 μg/ml pepstatin A). HIRcB cells were immunoprecipitated with anti-αv β3 237 according to Suzuki et al., PNAS USA 83:8614 (1986), as shown in lanes 1 and 3, 237 preimmune serum in lane 2, anti-αv β3 1343 in lane 4, anti-αIIb β3 in lane 5, anti-α5 β1 488 in lane 6 (made according to Argraves et al., J. Cell Biol. 105:1183 (1987)) and an unrelated rabbit antiserum (lane 7). Anti-αv β3 1343 was obtained from a person (Telios Pharmaceuticals, Inc.) and anti-αIIb β3 from Dr. Elisabetta Dejana (Mario Negri Institute, Milan, Italy). Three anti-α5 β1 antibodies and six unrelated polyclonal antibodies tested gave results similar to those shown in lanes 6 and 7. […] In lane 8, anti-αv β3 237 immunocomplexes from insulin-treated cells were dissociated and reprecipitated with the same antibody as follows. […]

[2] = test system: FG-C human pancreatic carcinoma cells (αv β3 integrin negative); assay: DNA synthesis ([3H]-thymidine incorporation into DNA) in insulin-stimulated FG-C cells on vitronectin or type I collagen; details: FG-C cells lacking αv β3; 100 mM insulin; FIG. 4 columns 3, 4, 7, 8, 11, 12
Method: (§2) FG-B (columns 1, 2, 5, 6, 9, and 10) and FG-C cells (columns 3, 4, 7, 8, 11, and 12) were plated at 1×10^5 cells/well on 24-well plates that had been coated either with vitronectin (dark column) or type I collagen (open column) . Plates were coated with 10 μg/ml of either vitronectin or type I collagen for 12 hours followed by blocking with 0.5% bovine serum albumin For 2 hours. Cells were incubated for 36 hours in DMEM containing 10% FCS (columns 1 to 4), or in DMEM containing 0.1% BSA followed by addition of buffer (columns 5 to 8) or 100 mM insulin (columns 9 to 12). FCS is used as a control because it provides maximal stimulation owing to the presence of high levels of growth factors and adhesion proteins.
(§3) After 15 hours, the cells were pulse-labeled with 1 μCi/ml [^3 H]-thymidine (specific activity 6.7 Ci/mmol, DuPont NEN) for 3 hours and thymidine incorporation into DNA was determined by trichloroacetic acid precipitation and liquid scintillation counting. Error bars indicate the standard error of triplicate determinations.

[3] = test system: FG-B human pancreatic carcinoma cells (αv β3 integrin positive); assay: DNA synthesis ([3H]-thymidine incorporation into DNA) in insulin-stimulated FG-B cells on vitronectin or type I collagen; details: 100 mM insulin, plates coated with 10 μg/ml vitronectin or type I collagen, FIG. 4 columns 9, 10
Method: as §2, §3

NRK cells = assay: DNA synthesis in IGF-1-stimulated NRK cells on vitronectin, collagen or laminin; details: data not shown
[4] = test system: human foreskin fibroblasts; assay: DNA synthesis ([3H]-thymidine incorporation) in PDGF-stimulated human foreskin fibroblasts on vitronectin or collagen; details: 40 ng/ml PDGF-BB, 20 μg/ml coating, FIG. 5 column 3 vs 4
Method: as §1, with “Human foreskin fibroblasts (Coriell) were” for “Rat-1 cells were”, “vitronectin of” for “vitronectin or”, “ng/ml PDGF-BB” for “ng/ml EGF”
Cells were serum-starved and treated with buffer only (samples 1 and 2) or with PDGF (samples 3 and 4). Data points are the average of duplicate samples.

## Epidermal growth factor (NSDSECPLSHDGYCLHDGVCMYIEALDKYACNCVVGYIGERCQYRDLKWWELR; Epidermal growth factor; UniProt P01133 971-1023, looked up) [EGF, EGF from Boehringer Mannheim]
Rat-1 cells
  Response (DNA synthesis) to EGF on vitronectin versus collagen: same response

## insulin
[1]
  Share of IRS-1 complexed with the vitronectin receptor: Five to eight
[2]
  Difference in DNA synthesis response on vitronectin and collagen: no difference
[3]
  DNA synthesis in response to insulin, on vitronectin relative to collagen: about 2.5 fold

## insulin-like growth factor [IGF-1]
NRK cells
  DNA synthesis in response to IGF-1, on vitronectin relative to collagen or laminin: about 2.3 fold

## platelet derived growth factor [PDGF]
[4]
  DNA synthesis in response to PDGF, on vitronectin relative to collagen: about 2.3 fold
